# Values joined by “and” are separate entries in the source; they are usually repeats but may differ in a detail not shown here. Identical values can stand only once. Like-named read-outs stand apart in the source and are kept apart here. Marks after values point to notes of the source that are not given here.
# Key:
# [1] = test system: HBV core protein variant Y118F; test: microbe, parasite or virus in culture
# Source text: (§1) Plasmids containing HBV DNA with rtN236T, rtA181V, rtA181V/N236T, and rtL180M/M204V/N236T were generated using the GT B WT or rtL180M/M204V DNA-containing plasmids and site-directed mutagenesis (Agilent Technologies). A panel of nine different HBV core variants (cW102G, cW102R, cI105V, cI105L, cI105T, cT109S, cT109M, cT109I, and cY118F) was generated, also using the GT B WT DNA-containing plasmid and site-directed mutagenesis. The full-length genome from all plasmids was sequenced to confirm that only the intended nucleotide change(s) was present. Finally, HBV sequences from genotypes A (GenBank accession number AF305422), C (GenBank accession number AB033550), D (GenBank accession number V01460), E (GenBank accession number AB274971), F (GenBank accession number AB036912), G (GenBank accession number AF160501), and H (GenBank accession number AB375159) were gene synthesized as 1.1 times the genome length together with part of the CMV promoter at the 5′ end. The gene-synthesized piece was validated by sequencing and subcloned into the pCMV-HBV plasmid using the restriction sites SalI and NdeI (Genewiz, USA).
# (§2) HepG2 cells were seeded in 96-well plates at a density of 20,000 cells/well and allowed to attach overnight at 37°C in 5% CO2. Cells were cotransfected with the HBV plasmids (100 ng/well) and a Gaussia expression plasmid (10 ng/well) (Thermo Scientific) using the Lipofectamine LTX Plus transfection reagent (Life Technologies). Transfection mixtures were removed after overnight incubation, and cells were treated with serially diluted NVR 3-778 at a final dimethyl sulfoxide (DMSO) concentration of 0.5%. After 3 days of incubation with the compound, the supernatants were collected and secreted Gaussia luciferase was measured using a Gaussia Flash luciferase assay kit (Thermo Scientific). Cells were lysed with 0.33% NP-40 (Thermo Scientific), and the cytoplasmic fractions were treated with 2 units of Turbo DNase (Invitrogen) and 10 units of S7 nuclease (Roche) in CutSmart buffer (New England Biolabs) containing 25 µM CaCl2 (G-Biosciences) at 37°C for 60 min, followed by inactivation of the enzymes at 75°C for 15 min. Samples were diluted into lysis buffer (Affymetrix) containing 2.5 µg proteinase K (Affymetrix) at 50°C for 40 min. Intracellular encapsidated HBV DNA was denatured for 30 min at 25°C in 0.2 M NaOH (Sigma) and incubated with HBV DNA probes designed to hybridize to the minus-strand HBV DNA (Affymetrix). The denatured DNA was subsequently detected using a QuantiGene assay kit, according to the branched DNA (bDNA) assay recommended by the manufacturer (Affymetrix).
# (§3) To determine percent inhibition, the mean background signal from wells containing only culture medium was subtracted from the signal for all other samples, and percent inhibition at each compound concentration was calculated by normalization to the signals for HepG2.2.15 cells treated with 0.5% DMSO. […] Both CalcuSyn and MacSynergy II (Ann Arbor, MI) software were used to evaluate the effect of compound combinations ([27]). After data analysis at the 95% confidence level, values of synergy or antagonism of <25 µM^2% were defined as insignificant, those between 25 and 50 µM^2% were defined as minor, those between 50 and 100 µM^2% were defined as moderate, and those of >100 µM^2% were defined as strong.
# [2] = test system: HBV core protein variant T109M; test: microbe, parasite or virus in culture
# Source text: as §1, §2, §3
# [3] = test system: HBV core protein variant T109I; test: microbe, parasite or virus in culture
# Source text: as §1, §2, §3
# [4] = test system: HBV core protein variant I105T; test: microbe, parasite or virus in culture
# Source text: as §1, §2, §3
# [5] = Oral bioavailability and pharmacokinetics in beagle dogs; assay type: in vivo; settings: for AUC(0-inf): read-out: AUC0–inf (mean)
# Method: After a 7-day washout period, the same two dogs were administered NVR 3-778 by a single oral gavage of the same formulation at 1.5 mg/kg. Blood samples were collected at 0 (predose), 2 min (for the i.v. group only), 5 min, 15 min, and 0.5, 1, 3, 6, 9, and 24 h postdose. The concentration of NVR 3-778 in plasma samples was determined using LC-MS/MS methods.
# HBV rtA181V variant = test: microbe, parasite or virus in culture; assay type: cell-based, hepatitis B virus; settings: ratio of mean EC50 against variant over WT HBV, HepG2 cells
# Source text: as §1, §2, §3
# HBV GT A = test: Transient-transfection antiviral study in HepG2 cells, GT A; assay type: cell-based; settings: Hepatitis B virus, 72 h, 3 days, intracellular encapsidated rcDNA
# Method: Cells were cotransfected with the HBV plasmids (100 ng/well) and a Gaussia expression plasmid (10 ng/well) (Thermo Scientific) using the Lipofectamine LTX Plus transfection reagent (Life Technologies). Transfection mixtures were removed after overnight incubation, and cells were treated with serially diluted NVR 3-778 at a final dimethyl sulfoxide (DMSO) concentration of 0.5%. After 3 days of incubation with the compound, the supernatants were collected and secreted Gaussia luciferase was measured using a Gaussia Flash luciferase assay kit (Thermo Scientific). […] Samples were diluted into lysis buffer (Affymetrix) containing 2.5 µg proteinase K (Affymetrix) at 50°C for 40 min. Intracellular encapsidated HBV DNA was denatured for 30 min at 25°C in 0.2 M NaOH (Sigma) and incubated with HBV DNA probes designed to hybridize to the minus-strand HBV DNA (Affymetrix). The denatured DNA was subsequently detected using a QuantiGene assay kit, according to the branched DNA (bDNA) assay recommended by the manufacturer (Affymetrix).
# [6] = Hepatocyte stability, human hepatocytes; assay type: in vitro ADME; settings: 120 min incubation
# Method: (§4) Following in vitro incubation for 120 min with human, mouse, or dog hepatocytes, >85% of the NVR 3-778 remained intact. […] The fewest number of metabolites was found following incubation with human hepatocytes, where 92% of the NVR 3-778 remained after a 120-min incubation.
# [7] = Hepatocyte stability, mouse hepatocytes; assay type: in vitro ADME; settings: 120 min incubation
# Method: as §4
# [8] = ratio of mean EC50 for core variant over wild-type HBV
# [9] = dog, plasma, iv, single i.v. 0.5 mg/kg, two male beagle dogs
# [10] = dog, plasma, single oral gavage 1.5 mg/kg, two male beagle dogs
structure (smiles),measurement,setting,value
O=C(Nc1cc(F)c(F)c(F)c1)c1ccc(F)c(S(=O)(=O)N2CCC(O)CC2)c1 [NVR 3-778],EC50,"[1]; Hepatitis B virus, HepG2, read-out: EC50, core variant Y118F",1700 ± 700 nM
same,"EC50 FC, Y118F",[1]; [8],7.4 fold
same,EC50,"[2]; Hepatitis B virus, HepG2, read-out: EC50, core variant T109M",280 ± 130 nM
same,"EC50 FC, T109M",[2]; [8],1.2 fold
same,EC50,"[3]; Hepatitis B virus, HepG2, read-out: EC50, core variant T109I",150 ± 61 nM
same,"EC50 FC, T109I",[3]; [8],0.65 fold
same,EC50,"[4]; Hepatitis B virus, HepG2, read-out: EC50, core variant I105T",1500 ± 300 nM
same,"EC50 FC, I105T",[4]; [8],6.5 fold
same,clearance,[5]; [9],6.1 mL/min/kg
same,AUC(0-inf),[5]; [9],1380 ng·h/mL
same,half-life,"[5]; dog, plasma, iv, single i.v. 0.5 mg/kg, two male beagle dogs, read-out: Mean terminal half-life (converted)",4.1 h
same,Vd,"[5]; dog, plasma, iv, single i.v. 0.5 mg/kg, two male beagle dogs, read-out: Volume of distribution at steady state (Vss) (mean)",1.7 L/kg
same,Cmax,[5]; [10],560 ng/mL
same,AUC(0-inf),[5]; [10],3500 ng·h/mL
same,Circulating species in plasma,"[5]; dogs, oral gavage",predominant circulating molecule
same,bioavailability,"[5]; male, dog, plasma, oral 1.5 mg/kg versus i.v. 0.5 mg/kg, beagle dogs",84.6%
same,"EC50 fold change, rtA181V",HBV rtA181V variant,0.82 ± 0.19^d fold
same,EC50,HBV GT A,380 nM
same,NVR 3-778 remaining intact,[6],> 85% and 92%
same,NVR 3-778 remaining intact,[7],> 85%
